# Measurements taken from the NIST ThermoML archive (doi:10.1007/s10765-007-0223-x).
# Numbers after ± are expanded uncertainties.
# Test: xn = mol fraction of the nth substance listed
# Conditions: 101 kPa, Liquid; for speed of sound: Single path-length method
smiles,measurement,setting,value
COC(C)(C)C [2-methoxy-2-methylpropane] + c1ccccc1,speed of sound,"288.15 K, x1 = 0.052",1328.4 ± 2.1 m/s
same,speed of sound,"288.15 K, x1 = 0.111",1309.5 ± 2.1 m/s
same,speed of sound,"288.15 K, x1 = 0.202",1281.7 ± 2.1 m/s
same,speed of sound,"288.15 K, x1 = 0.303",1252.5 ± 2.1 m/s
same,speed of sound,"288.15 K, x1 = 0.397",1226.5 ± 2.1 m/s
same,speed of sound,"288.15 K, x1 = 0.5",1199.1 ± 2.1 m/s
same,speed of sound,"288.15 K, x1 = 0.596",1174.8 ± 2.1 m/s
same,speed of sound,"288.15 K, x1 = 0.698",1149.4 ± 2.1 m/s
same,speed of sound,"288.15 K, x1 = 0.791",1128.2 ± 2.1 m/s
same,speed of sound,"288.15 K, x1 = 0.902",1103 ± 2.1 m/s
same,speed of sound,"288.15 K, x1 = 0.95",1092.4 ± 2.1 m/s
same,speed of sound,"288.15 K, x1 = 1",1083.4 ± 2.1 m/s
same,mass density,"288.15 K, x1 = 0.052",874.712 ± 0.4 kg/m3
same,mass density,"288.15 K, x1 = 0.111",864.515 ± 0.41 kg/m3
same,mass density,"288.15 K, x1 = 0.202",849.416 ± 0.43 kg/m3
same,mass density,"288.15 K, x1 = 0.303",833.719 ± 0.45 kg/m3
same,mass density,"288.15 K, x1 = 0.397",819.912 ± 0.46 kg/m3
same,mass density,"288.15 K, x1 = 0.5",805.496 ± 0.48 kg/m3
same,mass density,"288.15 K, x1 = 0.596",792.712 ± 0.5 kg/m3
same,mass density,"288.15 K, x1 = 0.698",779.712 ± 0.52 kg/m3
same,mass density,"288.15 K, x1 = 0.791",768.503 ± 0.53 kg/m3
same,mass density,"288.15 K, x1 = 0.902",755.682 ± 0.55 kg/m3
same,mass density,"288.15 K, x1 = 0.95",750.294 ± 0.56 kg/m3
same,mass density,"288.15 K, x1 = 1",744.861 ± 0.55 kg/m3
same,speed of sound,"290.65 K, x1 = 0.052",1316.5 ± 2.1 m/s
same,speed of sound,"290.65 K, x1 = 0.111",1297.5 ± 2.1 m/s
same,speed of sound,"290.65 K, x1 = 0.202",1269.6 ± 2.1 m/s
same,speed of sound,"290.65 K, x1 = 0.303",1240.5 ± 2.1 m/s
same,speed of sound,"290.65 K, x1 = 0.397",1214.4 ± 2.1 m/s
same,speed of sound,"290.65 K, x1 = 0.5",1187.2 ± 2.1 m/s
same,speed of sound,"290.65 K, x1 = 0.596",1163 ± 2.1 m/s
same,speed of sound,"290.65 K, x1 = 0.698",1137.7 ± 2.1 m/s
same,speed of sound,"290.65 K, x1 = 0.791",1116.4 ± 2.1 m/s
same,speed of sound,"290.65 K, x1 = 0.902",1091.2 ± 2.1 m/s
same,speed of sound,"290.65 K, x1 = 0.95",1080.6 ± 2.1 m/s
same,speed of sound,"290.65 K, x1 = 1",1071.6 ± 2.1 m/s
same,mass density,"290.65 K, x1 = 0.052",872.067 ± 0.41 kg/m3
same,mass density,"290.65 K, x1 = 0.111",861.888 ± 0.41 kg/m3
same,mass density,"290.65 K, x1 = 0.202",846.799 ± 0.43 kg/m3
same,mass density,"290.65 K, x1 = 0.303",831.129 ± 0.45 kg/m3
same,mass density,"290.65 K, x1 = 0.397",817.328 ± 0.47 kg/m3
same,mass density,"290.65 K, x1 = 0.5",802.92 ± 0.49 kg/m3
same,mass density,"290.65 K, x1 = 0.596",790.137 ± 0.5 kg/m3
same,mass density,"290.65 K, x1 = 0.698",777.135 ± 0.52 kg/m3
same,mass density,"290.65 K, x1 = 0.791",765.921 ± 0.53 kg/m3
same,mass density,"290.65 K, x1 = 0.902",753.094 ± 0.55 kg/m3
same,mass density,"290.65 K, x1 = 0.95",747.701 ± 0.56 kg/m3
same,mass density,"290.65 K, x1 = 1",742.259 ± 0.56 kg/m3
same,speed of sound,"293.15 K, x1 = 0.052",1304.8 ± 2.1 m/s
same,speed of sound,"293.15 K, x1 = 0.111",1285.9 ± 2.1 m/s
same,speed of sound,"293.15 K, x1 = 0.202",1258 ± 2.1 m/s
same,speed of sound,"293.15 K, x1 = 0.303",1228.9 ± 2.1 m/s
same,speed of sound,"293.15 K, x1 = 0.397",1202.9 ± 2.1 m/s
same,speed of sound,"293.15 K, x1 = 0.5",1175.6 ± 2.1 m/s
same,speed of sound,"293.15 K, x1 = 0.596",1151.4 ± 2.1 m/s
same,speed of sound,"293.15 K, x1 = 0.698",1126.2 ± 2.1 m/s
same,speed of sound,"293.15 K, x1 = 0.791",1104.8 ± 2.1 m/s
same,speed of sound,"293.15 K, x1 = 0.902",1079.6 ± 2.1 m/s
same,speed of sound,"293.15 K, x1 = 0.95",1069 ± 2.1 m/s
same,speed of sound,"293.15 K, x1 = 1",1060 ± 2.1 m/s
same,mass density,"293.15 K, x1 = 0.052",869.419 ± 0.41 kg/m3
same,mass density,"293.15 K, x1 = 0.111",859.259 ± 0.42 kg/m3
same,mass density,"293.15 K, x1 = 0.202",844.19 ± 0.44 kg/m3
same,mass density,"293.15 K, x1 = 0.303",828.533 ± 0.45 kg/m3
same,mass density,"293.15 K, x1 = 0.397",814.742 ± 0.47 kg/m3
same,mass density,"293.15 K, x1 = 0.5",800.338 ± 0.49 kg/m3
same,mass density,"293.15 K, x1 = 0.596",787.557 ± 0.51 kg/m3
same,mass density,"293.15 K, x1 = 0.698",774.552 ± 0.52 kg/m3
same,mass density,"293.15 K, x1 = 0.791",763.334 ± 0.54 kg/m3
same,mass density,"293.15 K, x1 = 0.902",750.497 ± 0.56 kg/m3
same,mass density,"293.15 K, x1 = 0.95",745.1 ± 0.56 kg/m3
same,mass density,"293.15 K, x1 = 1",739.654 ± 0.56 kg/m3
same,speed of sound,"295.65 K, x1 = 0.052",1293 ± 2.1 m/s
same,speed of sound,"295.65 K, x1 = 0.111",1274.2 ± 2.1 m/s
same,speed of sound,"295.65 K, x1 = 0.202",1246.3 ± 2.1 m/s
same,speed of sound,"295.65 K, x1 = 0.303",1217.3 ± 2.1 m/s
same,speed of sound,"295.65 K, x1 = 0.397",1191.3 ± 2.1 m/s
same,speed of sound,"295.65 K, x1 = 0.5",1164 ± 2.1 m/s
same,speed of sound,"295.65 K, x1 = 0.596",1139.8 ± 2.1 m/s
same,speed of sound,"295.65 K, x1 = 0.698",1114.6 ± 2.1 m/s
same,speed of sound,"295.65 K, x1 = 0.791",1093.1 ± 2.1 m/s
same,speed of sound,"295.65 K, x1 = 0.902",1067.9 ± 2.1 m/s
same,speed of sound,"295.65 K, x1 = 0.95",1057.2 ± 2.1 m/s
same,speed of sound,"295.65 K, x1 = 1",1048.5 ± 2.1 m/s
same,mass density,"295.65 K, x1 = 0.052",866.766 ± 0.41 kg/m3
same,mass density,"295.65 K, x1 = 0.111",856.624 ± 0.42 kg/m3
same,mass density,"295.65 K, x1 = 0.202",841.573 ± 0.44 kg/m3
same,mass density,"295.65 K, x1 = 0.303",825.932 ± 0.46 kg/m3
